SMILES strings stand for the structures. Values joined by “and” are separate entries in the source; they are usually repeats but may differ in a detail not shown here. Identical values can stand only once. Toxic doses and inconclusive results are not listed.

T/C data for 21 molecules are collected here from PubChem BioAssay AID330 (DTP/NCI, 2004).

The assay concerns P388 leukemia ip, CD2F1 mice, survival T/C. In words: NCI In Vivo Anticancer Drug Screen. Data for tumor model P388 Leukemia (intraperitoneal) in CD2F1 (CDF1) mice. To be noted: endpoint: median survival time, higher = longer survival. In outline: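 Mice carrying the transplanted tumor received test compound or vehicle. Survival was recorded in each group, and the value is the treated-group measurement divided by that of the vehicle-treated control group.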

Setting [1] is: dose: 100.0 mg/kg/injection, schedule: Q01DX009 (ip), vehicle: saline with Tween-80.
The mark [2] stands for this setting: dose: 25.0 mg/kg/injection, schedule: Q01DX009 (ip), vehicle: saline with Tween-80.
[3] abbreviates: dose: 50.0 mg/kg/injection, schedule: Q01DX009 (ip), vehicle: saline with Tween-80.
Where [4] appears, read: dose: 200.0 mg/kg/injection, schedule: Q01DX009 (ip), vehicle: saline with Tween-80.
Where [5] appears, read: dose: 6.25 mg/kg/injection, schedule: Q01DX009 (ip), vehicle: saline with Tween-80.
[6] abbreviates: dose: 12.5 mg/kg/injection, schedule: Q01DX009 (ip), vehicle: saline with Tween-80.
[7] abbreviates: dose: 100.0 mg/kg/injection, schedule: Q01DX001 (ip), vehicle: Klucel (hydroxypropylcellulose) (HPC).
Where [8] appears, read: dose: 200.0 mg/kg/injection, schedule: Q01DX001 (ip), vehicle: Klucel (hydroxypropylcellulose) (HPC).
Setting [9] is: dose: 400.0 mg/kg/injection, schedule: Q01DX001 (ip), vehicle: Klucel (hydroxypropylcellulose) (HPC).
[10] abbreviates: dose: 50.0 mg/kg/injection, schedule: Q01DX009 (ip), vehicle: Klucel (hydroxypropylcellulose) (HPC).
Setting [11] is: dose: 100.0 mg/kg/injection, schedule: Q01DX009 (ip), vehicle: Klucel (hydroxypropylcellulose) (HPC).
The mark [12] stands for this setting: dose: 200.0 mg/kg/injection, schedule: Q01DX009 (ip), vehicle: Klucel (hydroxypropylcellulose) (HPC).

As for `Nc1ccc2[nH]c(=S)[nH]c2c1`, the T/C runs as follows: (dose: 10.0 mg/kg/injection, schedule: Q01DX009 (ip), vehicle: saline with Tween-80) 100 % of control; (dose: 20.0 mg/kg/injection, schedule: Q01DX009 (ip), vehicle: saline with Tween-80) 104 % of control; (dose: 40.0 mg/kg/injection, schedule: Q01DX009 (ip), vehicle: saline with Tween-80) 100 % of control; under setting [1], 95 % of control; (dose: 400.0 mg/kg/injection, schedule: Q01DX009 (ip), vehicle: saline with Tween-80) 95 % of control.

For `O=C1CCCc2c1[nH]c1ccccc21`, the T/C is 100 % of control under setting [2], 105 % of control under setting [3], 108 % of control under setting [1] and 104 % of control under setting [4].

Turning to `Cc1[nH]cnc1CSCCN=C(N)n1[nH]cc(C)c1=O`, the T/C reads like this: (dose: 60.0 mg/kg/injection, schedule: Q01DX005 (ip), vehicle: Klucel (hydroxypropylcellulose) (HPC)) 111 % of control; (dose: 120.0 mg/kg/injection, schedule: Q01DX005 (ip), vehicle: Klucel (hydroxypropylcellulose) (HPC)) 100 % of control; (dose: 240.0 mg/kg/injection, schedule: Q01DX005 (ip), vehicle: Klucel (hydroxypropylcellulose) (HPC)) 99 % of control.

In the case of `CC[N+]1([O-])CCOCC1`, the T/C is 97 % of control (dose: 50.0 mg/kg/injection, schedule: Q01DX009 (ip), vehicle: saline); 101 % of control (dose: 100.0 mg/kg/injection, schedule: Q01DX009 (ip), vehicle: saline); 113 % of control (dose: 200.0 mg/kg/injection, schedule: Q01DX009 (ip), vehicle: saline).

On to `c1ccc2c3c(ccc2c1)OP1(=NP(N2CC2)(N2CC2)=NP(N2CC2)(N2CC2)=N1)Oc1ccc2ccccc2c1-3`, for which the T/C is, setting by setting: (dose: 100.0 mg/kg/injection, schedule: Q04DX002 (ip), vehicle: Klucel (hydroxypropylcellulose) (HPC)) 101 % of control and 117 % of control; (dose: 200.0 mg/kg/injection, schedule: Q04DX002 (ip), vehicle: Klucel (hydroxypropylcellulose) (HPC)) 100 % of control; (dose: 400.0 mg/kg/injection, schedule: Q04DX002 (ip), vehicle: Klucel (hydroxypropylcellulose) (HPC)) 108 % of control; (dose: 800.0 mg/kg/injection, schedule: Q04DX002 (ip), vehicle: Klucel (hydroxypropylcellulose) (HPC)) 102 % of control.

`OCCC(N1CCOCC1)C(O)(c1ccccc1)c1ccccc1` (configuration not stated): the T/C reads like this: (dose: 60.0 mg/kg/injection, schedule: Q01DX005 (ip), vehicle: saline with Tween-80) 93 % of control; (dose: 120.0 mg/kg/injection, schedule: Q01DX005 (ip), vehicle: saline with Tween-80) 93 % of control; (dose: 240.0 mg/kg/injection, schedule: Q01DX005 (ip), vehicle: saline with Tween-80) 97 % of control.

With `CN1CCc2cc3c4cc2C1Cc1ccc(O)c(c1)Oc1ccc(cc1)CC1c2c(cc(O)c(c2O4)O3)CCN1C` (configuration not stated), the T/C is, setting by setting: (dose: 0.25 mg/kg/injection, schedule: Q01DX009 (ip), vehicle: saline) 103 % of control; (dose: 0.5 mg/kg/injection, schedule: Q01DX009 (ip), vehicle: saline) 110 % of control; (dose: 1.0 mg/kg/injection, schedule: Q01DX009 (ip), vehicle: saline) 103 % of control; (dose: 2.0 mg/kg/injection, schedule: Q01DX009 (ip), vehicle: saline) 100 % of control; (dose: 4.0 mg/kg/injection, schedule: Q01DX009 (ip), vehicle: saline) 94 % of control.

For the molecule `NC(CCC(=O)O)C(=O)Nc1ccc(N(CCCl)CCCl)cc1` (configuration not stated), the T/C is, setting by setting: (dose: 1.56 mg/kg/injection, schedule: Q01DX009 (ip), vehicle: saline with Tween-80) 173 % of control; (dose: 3.12 mg/kg/injection, schedule: Q01DX009 (ip), vehicle: saline with Tween-80) 175 % of control; under setting [5], 230 % of control; under setting [6], 92 % of control.

As for `COC(=N)c1nnn(-c2ccccc2)n1`, the T/C is 97 % of control (dose: 100.0 mg/kg/injection, schedule: Q04DX003 (ip), vehicle: Klucel (hydroxypropylcellulose) (HPC)); 97 % of control (dose: 200.0 mg/kg/injection, schedule: Q04DX003 (ip), vehicle: Klucel (hydroxypropylcellulose) (HPC)); 95 % of control (dose: 400.0 mg/kg/injection, schedule: Q04DX003 (ip), vehicle: Klucel (hydroxypropylcellulose) (HPC)).

As to `Cc1c(-c2ccccc2)ccnc1/C=N/NC(=S)NCCc1ccccn1`, the T/C under setting [5] is 113 % of control; the T/C under setting [6] is 107 % of control and 111 % of control; the T/C under setting [2] was 115 % of control and 117 % of control; the T/C under setting [3] was 120 % of control and 122 % of control; the T/C under setting [1] is 86 % of control.

Consider `CC(=O)C1=CN(C)c2ccccc2[S@@]1=O`, for which the T/C is 103 % of control (dose: 50.0 mg/kg/injection, schedule: Q01DX005 (ip), vehicle: Klucel (hydroxypropylcellulose) (HPC)); 100 % of control (dose: 100.0 mg/kg/injection, schedule: Q01DX005 (ip), vehicle: Klucel (hydroxypropylcellulose) (HPC)); 100 % of control (dose: 200.0 mg/kg/injection, schedule: Q01DX005 (ip), vehicle: Klucel (hydroxypropylcellulose) (HPC)).

`O=C1c2ccc(Cl)cc2-n2c1nc1ccccc1c2=O`: the T/C reads like this: under setting [7], 100 % of control; under setting [8], 93 % of control; under setting [9], 93 % of control.

`O=c1c2ccc(Cl)cc2nc2n1OCC2`: the T/C reads like this: under setting [7], 106 % of control; under setting [8], 100 % of control; under setting [9], 101 % of control.

In the case of `C=C(C)[C@@H]1CCc2c(O)c(O)c(=O)cc(C)c2C1`, the T/C was 108 % of control (dose: 1.75 mg/kg/injection, schedule: Q01DX009 (ip), vehicle: saline); 112 % of control and 113 % of control (dose: 3.5 mg/kg/injection, schedule: Q01DX009 (ip), vehicle: saline); 101 % of control and 121 % of control (dose: 7.0 mg/kg/injection, schedule: Q01DX009 (ip), vehicle: saline); 110 % of control (dose: 14.0 mg/kg/injection, schedule: Q01DX009 (ip), vehicle: saline); 121 % of control (dose: 28.0 mg/kg/injection, schedule: Q01DX009 (ip), vehicle: saline); 119 % of control (dose: 56.0 mg/kg/injection, schedule: Q01DX009 (ip), vehicle: saline).

Take `OC(Cc1cccnc1)(c1ccccc1)c1ccccc1`: the T/C was 111 % of control under setting [10], 109 % of control under setting [11] and 118 % of control under setting [12].

For `NC(N)=NC(N)=Nc1cc2c3ccccc3ccc2c2ccccc12`, the T/C by setting is: (dose: 25.0 mg/kg/injection, schedule: Q01DX001 (ip), vehicle: saline with Tween-80) 100 % of control; (dose: 50.0 mg/kg/injection, schedule: Q01DX001 (ip), vehicle: saline with Tween-80) 98 % of control; (dose: 100.0 mg/kg/injection, schedule: Q01DX001 (ip), vehicle: saline with Tween-80) 92 % of control.

`CCOC(=N)Cc1ccccc1`: the T/C by setting is: under setting [2], 103 % of control; under setting [3], 94 % of control; under setting [1], 101 % of control; under setting [4], 100 % of control.

`C=C(c1ccc(OC)cc1)c1cc(C(C)(C)C)c(O)c(C(C)(C)C)c1`: the T/C (dose: 50.0 mg/kg/injection, schedule: Q01DX005 (ip), vehicle: saline + Tween-80 + alcohol) was 101 % of control; the T/C (dose: 100.0 mg/kg/injection, schedule: Q01DX005 (ip), vehicle: saline + Tween-80 + alcohol) was 97 % of control; the T/C (dose: 200.0 mg/kg/injection, schedule: Q01DX005 (ip), vehicle: saline + Tween-80 + alcohol) was 100 % of control.

For the molecule `OCC(O)C(O)CO` (configuration not stated), the T/C by setting is: (dose: 50.0 mg/kg/injection, schedule: Q01DX005 (ip), vehicle: saline with Tween-80) 98 % of control; (dose: 100.0 mg/kg/injection, schedule: Q01DX005 (ip), vehicle: saline with Tween-80) 104 % of control; (dose: 200.0 mg/kg/injection, schedule: Q01DX005 (ip), vehicle: saline with Tween-80) 104 % of control.

For `CCOC(=O)c1nnn(Cc2ccccc2)c1N`, the T/C by setting is: under setting [6], 104 % of control; under setting [2], 100 % of control; under setting [3], 100 % of control; under setting [1], 104 % of control.

In the case of `CCCCC(=O)/C=C/c1ccc(Cl)c(Cl)c1`, the T/C runs as follows: under setting [10], 98 % of control; under setting [11], 90 % of control; under setting [12], 95 % of control.
